Read-outs that look alike come from different tables or passages of the source. Marks after values point to notes of the source that are not given here.
Tests used:
[1] = tested on: rat small intestinal α-glucosidases; test: rat small intestinal α-glucosidase inhibitory assay (pNPG); type: biochemical
Procedure: (§1) Aliquots of 0–10 μL of testing materials (triplicated) were incubated for 10 min with 20 μL of an enzyme solution of yeast α-glucosidase (Sigma-Aldrich, 0.4 units/mL in PBS) or mammalian α-glucosidase (Sigma-Aldrich, 40 mg). The mammalian enzyme was separated from rat intestinal acetone powder, which was hand homogenized using 1 mL of ice-cold PBS. After sonicating during ten min, the content was centrifuged at 6400 rpm for 10 min (Microfuge Qualitron, Inc., Albany, NY, USA). The supernatant was recovered and used for the in vitro assay.
(§2) After incubation with the enzymes 10 μL of p-nitrophenyl α-D-glucopyranoside (pNPG 5 mM and 10 mM in PSB, respectively) were added and then incubated for 20 min at 37 °C. Then, absorbances were determined in a BIO-RAD microplate reader model 680 at 405 nm.

yeast α-glucosidase [2] = target: T1, yeast α-glucosidase (Saccharomyces cerevisiae, UniProt P53341); test: yeast α-glucosidase inhibitory assay (pNPG, spectrophotocolorimetric); type: biochemical
T1 sequence (P53341 whole entry): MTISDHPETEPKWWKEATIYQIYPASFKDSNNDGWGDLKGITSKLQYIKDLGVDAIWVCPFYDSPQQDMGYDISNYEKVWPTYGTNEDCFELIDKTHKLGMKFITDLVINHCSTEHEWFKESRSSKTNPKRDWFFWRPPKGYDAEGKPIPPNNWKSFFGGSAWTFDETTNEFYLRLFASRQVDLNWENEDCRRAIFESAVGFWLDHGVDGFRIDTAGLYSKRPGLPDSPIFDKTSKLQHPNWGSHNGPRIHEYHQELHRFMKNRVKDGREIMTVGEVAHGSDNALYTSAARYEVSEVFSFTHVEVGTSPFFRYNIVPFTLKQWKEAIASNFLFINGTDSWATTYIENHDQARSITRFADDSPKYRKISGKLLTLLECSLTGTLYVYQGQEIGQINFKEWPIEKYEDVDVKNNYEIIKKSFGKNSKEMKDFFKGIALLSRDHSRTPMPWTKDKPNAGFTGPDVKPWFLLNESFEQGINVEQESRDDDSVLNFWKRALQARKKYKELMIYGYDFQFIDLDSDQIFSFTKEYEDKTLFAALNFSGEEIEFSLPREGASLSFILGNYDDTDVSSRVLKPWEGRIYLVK
Procedure: as §1, §2

[3] = tested on: small intestinal rat α-glucosidase; test: kinetic analysis (Lineweaver-Burk) with small intestinal rat α-glucosidase
Procedure: (§3) The mode of inhibition was determined by the Lineweaver-Burk plots. The inhibition constants were calculated using the following equation [36]: (2) v=Vmax×S/Km(1+[I]/Ki)+S(1+[I]/αKi) where v is the initial velocity in absence and presence of inhibitor; S and I are concentration of substrate and inhibitor, respectively; Vmax is the maximum velocity; Km is the Michaellis-Menten constant; Ki is the competitive inhibition constant and αKi is the uncompetitive inhibition constant. The kinetic data was analyzed using a computer program for nonlinear regressions (Graph Pad Prism 5.0, GraphPad Software, Inc., La Jolla, CA, USA).

yeast α-glucosidase [4] = target: T1, yeast α-glucosidase; test: kinetic analysis (Lineweaver-Burk) with yeast α-glucosidase; type: biochemical; settings: Lineweaver-Burk plot
Procedure: as §3

[5] = tested on: rat small intestinal α-glucosidases; design: method as in doi:10.1016/j.fshw.2014.11.003; settings: values taken from reference; ref [22]; cited from earlier work
[6] = mean ± SD of triplicate experiments, read-out: Rat Small Intestinal IC50

Molecule: C[C@H]1O[C@H](O[C@H]2[C@H](O)[C@@H](O)[C@@H](O[C@H]3[C@H](O)[C@@H](O)C(O)O[C@@H]3CO)O[C@@H]2CO)[C@H](O)[C@@H](O)[C@@H]1N[C@H]1C=C(CO)[C@@H](O)[C@H](O)[C@H]1O (stereo partly shown) [Acarbose, acarbose, reference compound]
- Rat Small Intestinal Maximum Inhibition (%) [1]: 80.2%
- IC50 [1, 6]: 100 ± 3 µM
- Yeast Maximum Inhibition (%) (yeast α-glucosidase [2]): 89.7%

Molecule: N#C[C@H](O[C@@H]1O[C@H](CO)[C@@H](O)[C@H](O)[C@H]1O)c1ccccc1 [Compound 1, prunasin]
- Rat Small Intestinal % Inhibition obtained with 10.0 mM of inhibitor [1]: 44.5 ^d %

Molecule: Oc1cc(O)c2c(c1)O[C@@H](c1ccc(O)c(O)c1)[C@@H](O)C2 [Compound 2, (−)-epi-catechin]
- Rat Small Intestinal % Inhibition obtained with 10.0 mM of inhibitor [1]: 15.2 ^d %

Molecule: O=c1c(O[C@@H]2O[C@H](CO)[C@H](O)[C@H](O)[C@H]2O)c(-c2ccc(O)c(O)c2)oc2cc(O)cc(O)c12 [Compound 3, hyperoside]
- Rat Small Intestinal Maximum Inhibition (%) [1]: 65.1%
- IC50 [1, 6]: 1980 ± 150 µM

Molecule: O=c1c(O[C@@H]2O[C@H](CO)[C@@H](O)[C@H](O)[C@H]2O)c(-c2ccc(O)c(O)c2)oc2cc(O)cc(O)c12 [Compound 4, isoquercetin]
- Rat Small Intestinal Maximum Inhibition (%) [1]: 71.0%
- IC50 [1, 6]: 1630 ± 110 µM

Molecule: O=C(OC[C@H]1O[C@@H](Oc2c(-c3ccc(O)c(O)c3)oc3cc(O)cc(O)c3c2=O)[C@H](O)[C@@H](O)[C@H]1O)c1ccccc1 [Compound 6, quercetin-3-O-(6′′-benzoyl)-β-galactoside]
- mode of inhibition, rat α-glucosidase ([3]; Lineweaver-Burk plot): mixed-type inhibitor
- Ki ([3]; read-out: inhibition constant Ki, rat enzyme (abstract), mixed-type inhibition): 212 µM
- Rat Small Intestinal Maximum Inhibition (%) [1]: 75.8%
- IC50 [1, 6]: 430 ± 30 µM
- IC50 ([1]; read-out: IC50, mammalian enzyme): 437 µM
- mode of inhibition, yeast α-glucosidase (yeast α-glucosidase [4]): mixed-type inhibitor

Molecule: CC(=O)c1ccc(O[C@@H]2O[C@H](CO)[C@@H](O)[C@H](O)[C@H]2O)cc1 [Compound 7, picein]
- Rat Small Intestinal Maximum Inhibition (%) [1]: 52.6%
- IC50 [1, 6]: 10700 ± 960 µM

Molecule: COc1ccc(O[C@@H]2O[C@H](CO)[C@@H](O)[C@H](O)[C@H]2O)cc1 [Compound 8, methylarbutin]
- Rat Small Intestinal % Inhibition obtained with 10.0 mM of inhibitor [1]: 39.3 ^d %

Molecule: O=c1c(O)c(-c2ccc(O)c(O)c2)oc2cc(O)cc(O)c12 [Compound 9, quercetin]
- IC50 [5]: 216 µM

Molecule: quercitrin [Compound 5]
- Rat Small Intestinal Maximum Inhibition (%) [1]: 59.7%
- IC50 [1, 6]: 3340 ± 380 µM
- Yeast Maximum Inhibition (%) (yeast α-glucosidase [2]): 45.0%

— publication PMC6332183, “α-Glucosidase Inhibitors from Vauquelinia corymbosa” (Molecules, 2015)
